“And” between values parts separate entries of the source, which are not always exact repeats. Equal entries are not always repeated. After the bases stand the sugars from the 5' end (letter, count) and the backbone: PS all phosphorothioate, else s phosphorothioate and o phosphodiester by linkage. Methylation of C is not given here. e = 2'-O-(2-methoxyethyl) (MOE); k = constrained ethyl (cEt); d = 2'-deoxy (DNA)
Target: APOL1
Settings: ASO

Work on “TTATATTTGATCCTCA (sugars kddddkekekeddddd, PS)” yielded a target mRNA inhibition (A431, 2 µM) of 39%.
For “TTATATTTGATCCTCA (sugars kkddddekekeddddd, PS)”, the target mRNA inhibition (A431, 2 µM) was 96%.
For “TTATATTTGATCCTCA (sugars kkddddkdkdkddddd, PS)”, the target mRNA inhibition (A431, 0.0156 µM) was 15%, the target mRNA inhibition (A431, 0.0625 µM) was 44% and the target mRNA inhibition (A431, 0.25 µM) was 76%. The target mRNA inhibition (A431, 1 µM) was 93% and the target mRNA inhibition (A431, 2 µM) was 96%.
For “TTATGAAATTATTGGT (sugars k2 d4 e4 k2 d4, PS)”, the target mRNA inhibition (A431, 2 µM) was 35%.
With “TTATTCTCATGGTACA (sugars kkddddkekekddddd, PS)” the target mRNA inhibition (A431, 2 µM) was 47%.
In the case of TTATTGCAGGCTCCAA (sugars k4 d9 k3, PS), the target mRNA inhibition (A431, 0.0625 µM) was 39%, the target mRNA inhibition (A431, 0.25 µM) was 47% and the target mRNA inhibition (A431, 1 µM) was 76%.
Sequence TTCAGAATTTCCACTA (sugars k4 d9 k3, PS) has a target mRNA inhibition (A431, 0.0625 µM) of 40%, a target mRNA inhibition (A431, 0.25 µM) of 67% and a target mRNA inhibition (A431, 1 µM) of 87%.
“TTCAGAATTTCCACTA (sugars kdddddkekekddddd, PS)” was tested, and the target mRNA inhibition (A431, 2 µM) was 87%.
“TTCAGAATTTCCACTA (sugars kkddddkekekkdddd, PS)” gave a target mRNA inhibition (A431, 2 µM) of 58%.
TTCAGCTAAGACCAGT (sugars k4 d9 k3, PS) showed a target mRNA inhibition (A431, 0.0625 µM) of 35%, a target mRNA inhibition (A431, 0.25 µM) of 71% and a target mRNA inhibition (A431, 1 µM) of 88%.
For TTCATGATCATTTGTC (sugars k4 d9 k3, PS), the target mRNA inhibition (A431, 0.0625 µM) was 47%, the target mRNA inhibition (A431, 0.25 µM) was 68% and the target mRNA inhibition (A431, 1 µM) was 81%.
“TTCTATTAGAGGGCTA (sugars kdddddkekekddddd, PS)” gave a target mRNA inhibition (A431, 2 µM) of 45%.
“TTCTATTAGAGGGCTA (sugars kddddkekekeddddd, PS)” showed a target mRNA inhibition (A431, 2 µM) of 34%.
With “TTCTATTAGAGGGCTA (sugars kkddddkdkdkddddd, PS)” the target mRNA inhibition (A431, 2 µM) was 87%.
“TTCTATTAGAGGGCTA (sugars kkddddkekekkdddd, PS)” was tested, and the target mRNA inhibition (A431, 2 µM) was 26%.
Work on “TTCTATTAGAGGGCTA (sugars kkkddddkekekdddd, PS)” yielded a target mRNA inhibition (A431, 2 µM) of 42%.
“TTCTCATGGTACAGGA (sugars k3 d4 k3 e1 d5, PS)” showed a target mRNA inhibition (A431, 2 µM) of 44%.
Work on “TTCTCATGGTACAGGA (sugars kkddddekekeddddd, PS)” yielded a target mRNA inhibition (A431, 2 µM) of 79%.
With “TTCTCATGGTACAGGA (sugars kkddddkekekkdddd, PS)” the target mRNA inhibition (A431, 2 µM) was 20%.
For “TTCTCATGGTACAGGA (sugars kkkddddkekekdddd, PS)”, the target mRNA inhibition (A431, 2 µM) was 54%.
TTGATGAGTAGGTGAG (sugars k4 d9 k3, PS) gave a target mRNA inhibition (A431, 0.0625 µM) of 72%, a target mRNA inhibition (A431, 0.25 µM) of 81% and a target mRNA inhibition (A431, 1 µM) of 85%.
TTGGGTCAAAAGCGAT (sugars k4 d9 k3, PS) gave a target mRNA inhibition (A431, 0.0625 µM) of 56%, a target mRNA inhibition (A431, 0.25 µM) of 86% and a target mRNA inhibition (A431, 1 µM) of 93%.
In the case of “TTGTAAGTGCAACCAA (sugars k3 d4 k3 e1 d5, PS)”, the target mRNA inhibition (A431, 2 µM) was 78%.
“TTGTAAGTGCAACCAA (sugars kkddddekekeddddd, PS)” gave a target mRNA inhibition (A431, 2 µM) of 87%.
“TTGTAAGTGCAACCAA (sugars kkddddkekekkdddd, PS)” gave a target mRNA inhibition (A431, 2 µM) of 54%.
“TTGTAAGTGCAACCAA (sugars kkkddddkekekdddd, PS)” was tested, and the target mRNA inhibition (A431, 2 µM) was 35%.
“TTTAAACTCAGGTGAC (sugars kddddkekekeddddd, PS)” gave a target mRNA inhibition (A431, 2 µM) of 43%.
“TTTATACCAGTGTCTT (sugars k2 d4 e3 k2 d5, PS)” was tested, and the target mRNA inhibition (A431, 2 µM) was 88%.
“TTTATACCAGTGTCTT (sugars k2 d4 e4 k2 d4, PS)” showed a target mRNA inhibition (A431, 2 µM) of 89%.
“TTTATACCAGTGTCTT (sugars kkkddddkekekdddd, PS)” gave a target mRNA inhibition (A431, 2 µM) of 76%.
“TTTGTAAGTGCAACCA (sugars k3 d5 k3 d5, PS)” showed a target mRNA inhibition (A431, 2 µM) of 98%.
With TTTGTAAGTGCAACCA (sugars k4 d9 k3, PS) the target mRNA inhibition (A431, 0.04 µM) was 37% and 23%, the target mRNA inhibition (A431, 0.0625 µM) was 70% and the target mRNA inhibition (A431, 0.25 µM) was 91%. The target mRNA inhibition (A431, 1 µM) was 97% and 96% and 93%.
Work on “TTTGTAAGTGCAACCA (sugars kddddkekekeddddd, PS)” yielded a target mRNA inhibition (A431, 2 µM) of 95%.
For “TTTGTAAGTGCAACCA (sugars kekddddeekkddddd, PS)”, the target mRNA inhibition (A431, 0.0156 µM) was 21%, the target mRNA inhibition (A431, 0.0625 µM) was 46% and the target mRNA inhibition (A431, 0.25 µM) was 84%. For the same sequence, the target mRNA inhibition (A431, 1 µM) was 96% and the target mRNA inhibition (A431, 2 µM) was 99%.
With “TTTGTAAGTGCAACCA (sugars kkdddddkekeddddd, PS)” the target mRNA inhibition (A431, 0.0156 µM) was 36%, the target mRNA inhibition (A431, 0.0625 µM) was 46% and the target mRNA inhibition (A431, 0.25 µM) was 78%. The target mRNA inhibition (A431, 1 µM) was 91% and the target mRNA inhibition (A431, 2 µM) was 92%.
In the case of “TTTGTAAGTGCAACCA (sugars kkddddkdkdkddddd, PS)”, the target mRNA inhibition (A431, 2 µM) was 99%.
“TTTGTAAGTGCAACCA (sugars kkkddddkdkdkdddd, PS)” gave a target mRNA inhibition (A431, 2 µM) of 71%.
“TTTTGTAAGTGCAACC (sugars k2 d4 e3 k2 d5, PS)” showed a target mRNA inhibition (A431, 2 µM) of 99%.
With TTTTGTAAGTGCAACC (sugars k4 d9 k3, PS) the target mRNA inhibition (A431, 0.0625 µM) was 47%, the target mRNA inhibition (A431, 0.25 µM) was 84% and the target mRNA inhibition (A431, 1 µM) was 95%.

— the OligoGym collection
